Source: article PMC6471485, “Selective Inhibitors of a Human Prolyl Hydroxylase (OGFOD1) Involved in Ribosomal Decoding” (Chemistry (Weinheim an Der Bergstrasse, Germany), 2019)
Entries after “also recorded” stand apart in the source; their conditions may differ.

Key:
OGFOD1 = molecular target: T1, OGFOD1 (Homo sapiens, UniProt Q8N543); test: CPMG-edited 1H NMR binding experiment with OGFOD1; conditions: 30 µM inhibitor, 30 µM OGFOD1
T1 sequence (Q8N543 1-542): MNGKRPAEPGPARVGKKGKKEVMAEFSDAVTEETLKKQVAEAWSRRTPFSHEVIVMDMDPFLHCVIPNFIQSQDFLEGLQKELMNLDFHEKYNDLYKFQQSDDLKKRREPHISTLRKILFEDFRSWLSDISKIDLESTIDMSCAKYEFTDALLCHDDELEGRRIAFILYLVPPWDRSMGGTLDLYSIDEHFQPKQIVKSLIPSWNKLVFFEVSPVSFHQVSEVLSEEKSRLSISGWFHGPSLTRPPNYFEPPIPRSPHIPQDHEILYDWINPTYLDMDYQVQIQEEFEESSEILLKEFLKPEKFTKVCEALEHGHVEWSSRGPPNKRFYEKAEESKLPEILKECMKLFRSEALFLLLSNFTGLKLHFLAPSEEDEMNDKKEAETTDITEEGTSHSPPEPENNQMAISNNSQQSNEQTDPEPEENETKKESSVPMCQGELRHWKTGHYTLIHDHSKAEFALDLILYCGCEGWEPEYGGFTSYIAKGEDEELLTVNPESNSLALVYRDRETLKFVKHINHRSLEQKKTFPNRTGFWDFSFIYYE
Description: RapidFire integrator software (Agilent). Percent conversion was calculated in Excel, and IC50 curves were generated using Prism v. 7.0 (GraphPad).
Differential Scanning Fluorimetry (DSF) Assays
Assays consisted of enzyme (2 µM), inhibitor (200 µM), MnCl2 (50 µM), and SYPRO Orange (1:5000 dilution), all prepared in 50 mM HEPES, pH 7.5. Assays were conducted using white 96-well RT-PCR plates. An Opticon thermal cycler (MJ Research Inc) was used to control temperature and measure fluorescence. Data were processed using the OpticonMONITOR Analysis Software, while curve fitting was performed in Prism […]
Stable small-molecule inhibitor conformations were investigated using the MM2 force field method in ChemBio3D 11.0 (PerkinElmer Informatics). Protein structures were aligned using PyMOL version 2.0 (Schrödinger, LLC). The small-molecule inhibitors were then modelled into the protein active sites, overlaying them with the already contained inhibitor, if applicable (e.g., FG2216 with PHD2, PDB 3HQU; N-oxalylglycine with OGFOD1, PDB 4NHX). […]
CPMG Binding Experiments: Binding of the inhibitors to the proteins was monitored using Carr-Purcell-Meiboom-Gill (CPMG)-edited 1H spectra. […]
Competition Experiments by 2OG Displacement: 2OG displacement assays[12] were performed using CPMG-edited 1H spectra. […] The 2OG methylene resonance at 2.35 ppm was monitored. […]

Structure (SMILES) | binding to OGFOD1 by 1H CPMG NMR, in words (OGFOD1; listed as CCT3) | binding to OGFOD1 by 1H CPMG NMR, in words (OGFOD1; listed as CCT4) | melting point [°C]
Cn1c(O)c(C(=O)CCc2ccccc2)c(=O)n(C)c1=O [compound 26] | strong binding; also recorded: strongly bind to OGFOD1 | – | –
Cn1c(O)c(C(=O)CCc2cccs2)c(=O)n(C)c1=O [compound 42] | – | strong binding; also recorded: strongly bind to OGFOD1 | 91
